# From US11571418B2, “Platinum compounds that inhibit constitutive STAT3 signaling and induce cell cycle arrest and apoptosis of malignant cells” (H. LEE MOFFITT CANCER CENTER AND RESEARCH INSTITUTE, INC., priority 2011, dated 2023)
# Columns and labels:
# Stat3 = target: T1, Stat3 (Mus musculus, UniProt P42227); assay: In vitro Stat3 DNA-binding activity assay, EMSA with hSIE probe
# T1 construct: Nuclear extract preparation from NIH3T3 stimulated by rhIL-6, NIH3T3/hEGFR stimulated by rhEGF; endogenous in cells; host or cells: NIH3T3/hEGFR fibroblasts stimulated with rhEGF (nuclear extract)
# T1 sequence (P42227 2-770 limits assumed): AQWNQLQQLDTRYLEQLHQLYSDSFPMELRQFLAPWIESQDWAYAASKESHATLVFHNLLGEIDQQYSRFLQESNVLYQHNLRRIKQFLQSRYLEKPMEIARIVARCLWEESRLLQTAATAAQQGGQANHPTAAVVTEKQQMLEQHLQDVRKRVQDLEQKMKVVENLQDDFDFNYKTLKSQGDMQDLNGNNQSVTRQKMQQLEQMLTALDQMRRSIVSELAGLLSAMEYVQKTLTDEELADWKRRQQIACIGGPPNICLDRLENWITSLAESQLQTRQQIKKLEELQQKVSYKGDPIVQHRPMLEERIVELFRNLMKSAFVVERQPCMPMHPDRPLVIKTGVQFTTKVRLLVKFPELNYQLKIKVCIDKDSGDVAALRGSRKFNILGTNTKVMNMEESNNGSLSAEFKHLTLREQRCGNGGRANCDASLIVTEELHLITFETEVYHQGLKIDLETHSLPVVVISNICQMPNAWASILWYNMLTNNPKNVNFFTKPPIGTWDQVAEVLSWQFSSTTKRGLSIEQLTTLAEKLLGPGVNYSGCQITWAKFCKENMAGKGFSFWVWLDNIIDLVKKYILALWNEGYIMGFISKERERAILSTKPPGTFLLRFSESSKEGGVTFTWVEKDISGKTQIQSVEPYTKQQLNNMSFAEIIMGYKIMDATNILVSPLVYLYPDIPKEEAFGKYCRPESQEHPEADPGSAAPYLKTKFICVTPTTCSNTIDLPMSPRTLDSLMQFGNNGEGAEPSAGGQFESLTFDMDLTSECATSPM
# Protocol: FIGS. 1A-1E. Inhibition of in vitro Stat3 DNA-binding activity by a platinum complex. Nuclear extracts or cell lysates containing activated Stat1, Stat3 and Stat5, or E2F1 prepared from NIH3T3/hEGFR that are stimulated with EGF or Sf-9 insect cells that are infected with baculovirus expressing Stat1, Stat3, Stat5, or E2F1, respectively, were treated with or without the indicated concentrations of platinum complex, PLATINUM-401 or Cisplatin, for 30 min at room temperature prior to incubation with radiolabeled oligonucleotide probes, and subjected to EMSA analysis. (FIG. 1A) (i) Stat1 and Stat3 binding activities to hSIE probe, (ii) Stat1 and Stat5 binding activities to MGFe probe, and (iii) plot of % oligonucleotide probe-STAT:STAT complexes versus concentration of PLATINUM-401. […] Positions of STAT: STAT-DNA complexes in gel are labeled. In (A) to (C), the control lanes represent DMSO (vehicle)-treatment.
# Nuclear extract preparation and gel shift assays—Nuclear extract preparation from NIH3T3 stimulated by rhIL-6, NIH3T3/hEGFR stimulated by rhEGF, v-Src-transformed fibroblasts (NIH3T3/v-Src) or tumor cell lines and electrophoretic mobility shift assay were carried out as previously described (Turkson et al., 1998; Garcia et al., 1997; Yu et al., 1995). The ^32P-labeled oligonucleotide probes used are hSIE (high affinity sis-inducible element from the c-fos gene, m67 variant, 5′-[…]) (SEQ ID NO:1) that binds Stat1 and Stat3 (Garcia et al., 1997; Wagner et al., 1990) and MGFe (mammary gland factor element from the bovine β-casein gene promoter, 5′-AGATTTCTAGGAATTCAA) (SEQ ID NO:2) for Stat1 and Stat5 binding (49,50). Except where indicated, inhibitor compound was pre-incubated with the nuclear extract for 30 min at room temperature prior to incubation with radiolabeled probe.
# Compounds from the NCI 2000 diversity set were screened for inhibition of Stat3 signaling in an in vitro DNA-binding activity assay based on analysis by electrophoretic mobility shift assay (EMSA). A platinum (IV) complex, PLATINUM-401 (NSC 295558) (FIG. 1E), was identified as a potent inhibitor of Stat3 and was further characterized for its anti-Stat3 properties. In the in vitro DNA-binding activity assay, nuclear extracts of equal total protein containing active Stat1, Stat3 and Stat5 were pre-incubated with different concentrations of PLATINUM-401 for 30 min prior to incubation with a [^32P]-labeled oligonucleotide, the m67 high affinity sis-inducible element (hSIE) probe that binds Stat1 and Stat3, or the mammary gland factor element (MGFe) that binds Stat1 and Stat5. Samples were then subjected to EMSA.
# [1] = tested on: Stat3 tyrosine phosphorylation; assay: Stat3 tyrosine phosphorylation, Western blot; format: cell-based; settings: mouse fibroblasts, time- and dose-dependent
# Protocol: FIGS. 3A-3D. Inhibition of Stat3-mediated gene expression by PLATINUM-401. (FIG. 3A) and (FIG. 3B) v-Src-transformed mouse fibroblasts that stably express Stat3-dependent (NIH3T3/v-Src/pLucTKS3) and Stat3-independent (NIH3T3/v-Src/pRLSRE) luciferase reporters or β-galactosidase (β-gal), as well as normal mouse fibroblast (NIH3T3) transiently transfected with pLucTKS3, pGL2-VEGF-Luc, NFkB-Luc or pLucSRE together with or without v-Src were treated with or without PLATINUM-401 for 48 h. Cytosolic extracts were then prepared from cells for luciferase and […] activities measurements. Values are the means and S.D. of three to five independent assays; (FIG. 3C) and (FIG. 3D) Nuclear extracts or whole cell lysates were prepared from IL-6-stimulated normal mouse fibroblasts (NIH3T3) or their v-Src-transformed counterpart (NIH3T3/v-Src) that are treated with or without PLATINUM-401 for different times. Samples of equal total proteins were then subjected to in vitro DNA-binding activity and EMSA analysis or for SDS-PAGE and Western blot analysis for phosphorylated and total Stat3.
# Western blot—Whole-cell lysates were prepared in boiling sodium dodecyl sulfate (SDS) sample-loading buffer to extract total proteins from the cytoplasm and nucleus. […]
# To further investigate the activities of PLATINUM-401, the inventors treated malignant cells and measured effects on Stat3 signaling. […]
structure (smiles),measurement,setting,value
CC(O)CN1CCN(CC(C)O)CC1 (centres unmarked) [PLATINUM-401],IC50,Stat3,1400 nM
same,effect on Stat3 DNA-binding activity at low protein amount,Stat3; 1 μg protein,strong and a dose-dependent decrease
same,type of inhibition of Stat3 DNA-binding activity (Lineweaver-Burke plot),"Stat3; 0.3-2 μM compound, varied hSIE probe",non-competitive
same,effect on Stat3 DNA-binding activity at higher protein levels,Stat3; 2-3 μg protein,diminished effect
same,effect on Stat3 DNA-binding activity when protein is first bound to DNA,"Stat3; Stat3 incubated with hSIE probe 30 min, then compound 3-30 min",fails to disrupt
same,effect on DNA-binding activity of Stat3:Stat3 homodimer,Stat3; pre-incubated 30 min before hSIE probe,dose-dependent reduction
same,effect on Stat3 DNA-binding activity on simultaneous addition of compound and hSIE probe,"Stat3; simultaneous addition, data not shown",inhibition
same,Stat3 tyrosine phosphorylation,[1],inhibits
